For this assay, the system named is blood glucose. Nature of the assay: oral glucose tolerance test in diet-induced obese mice. To be noted: fasted DIO mice, 1 hour before glucose (2 g/kg) challenge. It is filed as in vivo, Male C57BL/6 mice. As for the experimental part:
Specifically, an oral glucose tolerance test in diet-induced obese mice were conducted. Male C57BL/6 mice (6-8 weeks of age) were used. Mice were fed a lean (control group) or high-fat (DIO group) diet (5 and 35% fat by weight, respectively) for 6-9 weeks and then administered an oral glucose tolerance test. […] Blood glucose was determined at various time points from tail bleeds using a glucometer. The blood glucose response curve (AUC's, t==2 hours) are 18.7±1.6, 20.1±0.7, 21.3±11.5 for above three groups, respectively.

In the case of `Cl.N#CC1CCCN1C(=O)CNCC(O)COc1ccccc1` (stereo not drawn) [compound 7, 1-(2-(2-hydroxy-3-phenoxypropylamino)acetyl)pyrrolidine-2-carbonitrile hydrochloride], the “blood glucose response curve (AUC's, t==2 hours)” value came out at 21.3±11.5 (3 mg/kg oral), 20.1±0.7 (10 mg/kg oral) and 18.7±1.6 (30 mg/kg oral).

The values above are taken from patent publication US9115082B2, “Dipeptidyl-peptidase-IV inhibitors for treatment of type 2 diabetes complex with hypertension” (priority 2012, dated 2015).
